The record followed here is patent US20210347780A1, “CDPK1 INHIBITORS, COMPOSITIONS, AND METHODS RELATED THERETO” (Vyera Pharmaceuticals, LLC, priority 2018, published 2021).

The assay concerns the target T1, T. gondii CDPK1 (tgCDPK1) (Toxoplasma gondii, UniProt Q9BJF5).
T1 sequence (Q9BJF5 1-507): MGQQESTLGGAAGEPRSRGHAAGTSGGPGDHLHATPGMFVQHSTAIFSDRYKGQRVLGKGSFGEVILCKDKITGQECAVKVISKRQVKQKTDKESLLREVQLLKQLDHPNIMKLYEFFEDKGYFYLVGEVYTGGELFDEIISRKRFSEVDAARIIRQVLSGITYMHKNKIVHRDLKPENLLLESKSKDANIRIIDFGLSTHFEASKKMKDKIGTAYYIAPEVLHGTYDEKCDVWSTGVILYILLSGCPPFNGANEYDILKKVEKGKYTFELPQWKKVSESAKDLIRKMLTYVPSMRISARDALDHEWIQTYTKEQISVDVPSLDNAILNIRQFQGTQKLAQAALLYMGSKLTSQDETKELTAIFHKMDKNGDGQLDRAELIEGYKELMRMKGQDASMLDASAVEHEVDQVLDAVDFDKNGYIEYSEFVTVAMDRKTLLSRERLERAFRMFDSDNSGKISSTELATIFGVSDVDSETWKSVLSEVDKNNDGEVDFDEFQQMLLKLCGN
Briefly: biochemical. The conditions noted are these: inhibition of T. gondii CDPK1; at least three independent replicates; read-out: tgCDPK1 IC50. On the procedure: Certain of the compounds prepared as described above were assayed to determine their IC50 for inhibition of T. gondii CDPK1 (tgCDPK1). At least three independent replicates of the assay were conducted for each compound tested.
As a reminder, the IC50 is the point on the concentration scale where inhibition reaches its midpoint. With `Nc1ncnc2c1c(Cc1cccc(Cl)c1)nn2[C@H]1C[C@@H](F)C1` [Compound 135, 3-(3-chlorobenzyl)-1-((cis)-3-fluorocyclobutyl)-1H-pyrazolo[3,4-d]pyrimidin-4-amine], the IC50 was determined as 7.05 nM.
Next, `COc1ccnc(Oc2nn([C@H]3C[C@H](F)C3)c3ncnc(N)c23)c1` [Compound 162]: 17.4 nM; `NC(=O)c1ccnc(Oc2nn([C@H]3CC[C@@H](C(F)(F)F)CC3)c3ncnc(N)c23)c1` [Compound 208]: 90.1 nM.
Consider `Nc1ncnc2c1c(Oc1cc(C(F)(F)F)ccn1)nn2[C@H]1CCCC[C@H]1F` [Compound 233], for which the IC50 came to 34.4 nM.
On to `Nc1ncnc2c1c(Oc1cc(C(F)(F)F)ccn1)nn2[C@@H]1CCCC[C@H]1O` [191 (R,R)], for which the IC50 worked out at 8.4 nM.
`NC(=O)c1ccnc(Oc2nn(C3CCC(F)(F)CC3)c3ncnc(N)c23)c1` [Compound 206]: the IC50 was determined as 96.8 nM.
For the compound `Nc1ncnc2c1c(Oc1cccc(Cl)c1)nn2CC1(CO)CC1` [Compound 250], the IC50 was 34.9 nM.
As for `COc1ccnc(Oc2nn(C3CCOC3)c3ncnc(N)c23)c1` (stereo not shown) [Compound 219], the IC50 was 77.4 nM.
As to `Nc1ncnc2c1c(Oc1cc(C(F)(F)F)ccn1)nn2C1CCOCC1` [Compound 198], the concentration for half-maximal inhibition (IC50) was 29.4 nM.
For `Nc1ncnc2c1c(Oc1cc(C(F)(F)F)ccn1)nn2C1CCC(N)CC1` (stereo not shown) [Compound 232], the IC50 is 24.3 nM.
On to `NC(=O)c1ccnc(Oc2nn(C3CCCC3)c3ncnc(N)c23)c1` [Compound 204], for which the IC50 was 67 nM.
With `Nc1ncnc2c1c(Oc1cc(Cl)ccn1)nn2C1CCCOC1` (stereo not shown) [Compound 216], the IC50 amounted to 15.8 nM.
Take `N#Cc1ccnc(Oc2nn([C@H]3CC[C@H](C(F)(F)F)CC3)c3ncnc(N)c23)c1` [Compound 209]: the IC50 came to 26 nM.
